Results: patent publication US20100004459A1, “2-PHENYLNICOTINIC ACID DERIVATIVE” (NIPPON ZOKI PHARMACEUTICAL CO., LTD., priority 2006, published 2010)

Legend:
xanthine oxidase = molecular target: T1, xanthine oxidase (Bos taurus, UniProt P80457); assay: Test for xanthine oxidase inhibitory activity; assay type: biochemical; conditions: xanthine oxidase derived from milk (Sigma); substrate xanthine; uric acid production at OD 292 nm, 37° C.
T1 construct: derived from milk; manufactured by Sigma; purchased Sigma; host or cells: milk (natural source)
T1 sequence (P80457 whole entry): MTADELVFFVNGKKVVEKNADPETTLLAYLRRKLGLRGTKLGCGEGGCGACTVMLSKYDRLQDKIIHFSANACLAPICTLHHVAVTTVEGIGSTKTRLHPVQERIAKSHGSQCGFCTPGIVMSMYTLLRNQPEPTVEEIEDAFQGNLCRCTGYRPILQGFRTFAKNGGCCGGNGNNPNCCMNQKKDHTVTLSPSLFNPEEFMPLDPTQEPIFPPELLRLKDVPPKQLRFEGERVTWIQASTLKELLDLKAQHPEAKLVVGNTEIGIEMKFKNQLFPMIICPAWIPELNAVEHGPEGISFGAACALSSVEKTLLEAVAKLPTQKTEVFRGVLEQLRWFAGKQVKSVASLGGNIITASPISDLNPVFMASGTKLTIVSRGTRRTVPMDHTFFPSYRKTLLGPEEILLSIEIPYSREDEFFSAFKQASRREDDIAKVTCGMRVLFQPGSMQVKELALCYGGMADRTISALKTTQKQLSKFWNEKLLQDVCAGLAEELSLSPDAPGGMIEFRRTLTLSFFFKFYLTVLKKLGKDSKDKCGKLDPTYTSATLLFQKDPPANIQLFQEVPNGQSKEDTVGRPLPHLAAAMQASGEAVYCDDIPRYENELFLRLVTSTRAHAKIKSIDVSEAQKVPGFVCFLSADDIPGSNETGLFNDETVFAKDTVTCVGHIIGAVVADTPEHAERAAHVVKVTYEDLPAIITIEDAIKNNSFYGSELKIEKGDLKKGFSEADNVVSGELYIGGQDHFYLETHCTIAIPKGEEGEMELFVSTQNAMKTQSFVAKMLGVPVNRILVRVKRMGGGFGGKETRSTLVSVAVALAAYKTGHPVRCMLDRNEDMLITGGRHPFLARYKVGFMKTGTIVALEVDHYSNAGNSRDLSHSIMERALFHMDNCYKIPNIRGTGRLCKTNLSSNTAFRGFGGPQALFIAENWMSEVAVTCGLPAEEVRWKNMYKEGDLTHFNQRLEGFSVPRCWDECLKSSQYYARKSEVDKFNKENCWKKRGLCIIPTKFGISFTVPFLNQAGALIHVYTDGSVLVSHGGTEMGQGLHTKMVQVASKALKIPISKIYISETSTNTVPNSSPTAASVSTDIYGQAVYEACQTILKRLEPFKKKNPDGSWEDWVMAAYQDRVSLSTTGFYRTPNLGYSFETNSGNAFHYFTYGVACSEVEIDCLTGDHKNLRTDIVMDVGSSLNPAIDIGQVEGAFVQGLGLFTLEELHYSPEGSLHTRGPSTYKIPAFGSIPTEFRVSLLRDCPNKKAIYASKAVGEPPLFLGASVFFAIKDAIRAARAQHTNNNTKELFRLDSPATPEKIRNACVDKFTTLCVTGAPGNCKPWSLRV
Protocol: Evaluation of inhibitory activity of the present invention to xanthine oxidase was conducted using xanthine as a substrate by measuring the amount of uric acid produced by xanthine oxidase which is an oxidizing enzyme therefor. Thus, xanthine oxidase (0.01 unit/L, 20 μL/well; derived from milk; manufactured by Sigma), diethylenetriamine pentaacetate (0.01 mol/L, 20 μL/well), phosphate buffer (20 μL/well), distilled water (100 μL/well) and a diluted solution (20 μL/well) of a test substance were mixed in a 96-well quartz microplate. After preincubating for 5 minutes in a microplate spectrophotometer warmed at 37° C., xanthine (1 mmol/L, 20 μL/well) was added. The changes with elapse of time in OD 292 nm based on the production of uric acid was measured using a microplate spectrophotometer warmed at 37° C. whereby the initial reaction velocity was measured. Xanthine oxidase inhibitory activity was calculated by the following formula and concentration of the test substance for 50% suppression (IC50 value) was calculated.
Inhibition Rate(%)={[(Initial Reaction Velocity of the Reaction Control)-(Initial Reaction Velocity upon Addition of Test Substance)]/[Initial Reaction Velocity of the Reaction Control]}×100

[1] = system: model rats of fructose-loaded hypertriglyceridemia; assay: Model rats of fructose-loaded hypertriglyceridemia: action for lowering of triglyceride in serum; assay type: in vivo; conditions: Rattus norvegicus, po; male SD rats, 75% fructose solution for three days; 100 mg/kg orally once daily; serum 2 hours after final administration; read-out: Inhibition Rate (%) Action for lowering of triglyceride
Protocol: (§1) The test was conducted according to a method of Kusama, et al. (Folia Pharmacologica Japonica, volume 92, pages 175 to 180, 1988). Thus, male rats of SD strain of 6 to 7 weeks age were made in free access to a 75% (w/v) D(−)-fructose solution for three days. During the period of fructose ingestion, a test substance (100 mg/kg) was suspended in 1% methyl cellulose and orally administered once daily. After 2 hours from the final administration, about 500 μL per rat of blood was collected using a hematocrit capillary from orbital venous plexus under anesthetization with ether and centrifuged (3000 rpm at 4° C. for 20 minutes) whereupon the serum was prepared.
(1) Action for Lowering of Triglyceride in Serum
The triglyceride (TG) in the serum was measured by a Triglyceride E-Test Wako (manufactured by Wako Pure Chemical Industries, Ltd.) and each TG lowering rate was determined by the following formula.
TG Lowering Rate(%)={[(TG Value of Control Animal)−(TG Value of Animal Administered with Test Substance)]/[(TG Value of Control Animal)-(TG Value of Untreated Animal)]}×100

[2] = system: model rats of fructose-loaded hypertriglyceridemia; assay: Model rats of fructose-loaded hypertriglyceridemia: action for lowering of uric acid in serum; assay type: in vivo; conditions: Rattus norvegicus, po; male SD rats, 75% fructose solution for three days; 100 mg/kg orally once daily; serum 2 hours after final administration; read-out: Inhibition Rate (%) Action for lowering of uric acid
Protocol: as §1
(2) Action for Lowering of Uric Acid in Serum
Uric acid value in the serum was measured by a Uric acid C-Test Wako (manufactured by Wako Pure Chemical Industries, Ltd.) using the above serum and each uric acid lowering rate was determined by the following formula.
Uric Acid Lowering Rate(%)={[(Uric Acid Value of Control Animal)-(Uric Acid Value of Animals Administered with Test Substance)]/[Uric Acid Value of Control Animal]}×100

SMILES: N#Cc1cc(-c2ncccc2C(=O)O)ccc1OCc1ccc(C(F)(F)F)cc1 [Example 50, 2-[3-Cyano-4-(4-trifluoromethylbenzyloxy)phenyl]nicotinic acid]
- IC50 (xanthine oxidase): 83 nM
- melting point: 226 to 227 °C

SMILES: COc1ccc(CC(C)(C)COc2ccc(-c3ncccc3C(=O)O)cc2C#N)cc1 [Example 104, 2-{3-Cyano-4-[2,2-dimethyl-3-(4-methoxyphenyl)propoxy]phenyl}nicotinic acid]
- IC50 (xanthine oxidase): 13 nM

SMILES: CC(C)(C)c1cc(CCCCOc2ccc(-c3ncccc3C(=O)O)cc2C#N)cc(C(C)(C)C)c1O [Example 90, 2-{3-Cyano-4-[4-(3,5-di-tert-butyl-4-hydroxyphenyl)butoxy]phenyl}nicotinic acid]
- IC50 (xanthine oxidase): 37 nM

SMILES: N#Cc1cc(-c2ncccc2C(=O)O)ccc1OCCc1ccccc1Cl [Example 100, 2-{4-[2-(2-Chlorophenyl)ethoxy]-3-cyanophenyl}nicotinic acid]
- IC50 (xanthine oxidase): 65 nM
- inhibition in vivo at 100 mg/kg [1]: 40.8%
- inhibition in vivo at 100 mg/kg [2]: 58.2%

SMILES: N#Cc1cc(-c2ncccc2C(=O)O)ccc1OCCCc1ccc(F)cc1 [Example 61, 2-{3-Cyano-4-[3-(4-fluorophenyl)propoxy]phenyl}nicotinic acid]
- IC50 (xanthine oxidase): 56 nM
- melting point: 177 to 178 °C

SMILES: COc1ccc(CCCOc2ccc(-c3ncccc3C(=O)O)cc2C#N)cc1 [Example 120, 2-{3-Cyano-4-[3-(4-methoxyphenyl)propoxy]phenyl}nicotinic acid]
- IC50 (xanthine oxidase): 35 nM

SMILES: CC(C)(COc1ccc(-c2ncccc2C(=O)O)cc1C#N)Cc1ccccc1 [Example 80, 2-[3-Cyano-4-(2,2-dimethyl-3-phenylpropoxy)phenyl]nicotinic acid]
- IC50 (xanthine oxidase): 38 nM
- melting point: 196 to 197 °C

SMILES: N#Cc1cc(-c2ncccc2C(=O)O)ccc1OCCCCc1ccccc1C(F)(F)F [Example 126, 2-{3-Cyano-4-[4-(2-trifluoromethylphenyl)butoxy]phenyl}nicotinic acid]
- IC50 (xanthine oxidase): 26 nM

SMILES: N#Cc1cc(-c2ncccc2C(=O)O)ccc1OCCCOc1ccc(OC(F)(F)F)cc1Cl [Example 69, 2-{4-[3-(2-Chloro-4-trifluoromethoxyphenoxy)propoxy]-3-cyanophenyl}nicotinic acid]
- IC50 (xanthine oxidase): 58 nM
- melting point: 159 to 160 °C

SMILES: CS(=O)(=O)Oc1ccc(CCOc2ccc(-c3ncccc3C(=O)O)cc2C#N)cc1 [Example 86, 2-{3-Cyano-4-[2-(4-methanesulfonyloxyphenyl)ethoxy]phenyl}nicotinic acid]
- IC50 (xanthine oxidase): 99 nM

SMILES: COc1ccc(CCOc2ccc(-c3ncccc3C(=O)O)cc2C#N)cc1 [Example 53, 2-[3-Cyano-4-(4-methoxyphenethyloxy)phenyl]nicotinic acid]
- IC50 (xanthine oxidase): 58 nM
- melting point: 183 to 184 °C

SMILES: COc1ccc(-c2ncccc2C(=O)O)cc1C#N [Example 43, 2-(3-Cyano-4-methoxyphenyl)nicotinic acid]
- melting point: 254 to 255 °C

SMILES: COc1ccc(CCCCOc2ccc(-c3ncccc3C(=O)O)cc2C#N)cc1 [Example 134, 2-{3-Cyano-4-[4-(4-methoxyphenyl)butoxy]phenyl}nicotinic acid]
- IC50 (xanthine oxidase): 18 nM

SMILES: N#Cc1cc(-c2ncccc2C(=O)O)ccc1OCCCOc1ccc(Oc2ccccc2)cc1 [Example 71, 2-{3-Cyano-4-[3-(4-phenoxyphenoxy)propoxy]phenyl}nicotinic acid]
- IC50 (xanthine oxidase): 90 nM
- melting point: 149 to 150 °C

SMILES: COc1ccccc1CC(C)(C)COc1ccc(-c2ncccc2C(=O)O)cc1C#N [Example 112, 2-{3-Cyano-4-[2,2-dimethyl-3-(2-methoxyphenyl)propoxy]phenyl}nicotinic acid]
- IC50 (xanthine oxidase): 28 nM

SMILES: N#Cc1cc(-c2ncccc2C(=O)O)ccc1OCC1CC1 [Example 45, 2-(3-Cyano-4-cyclopropylmethoxyphenyl)nicotinic acid]
- melting point: 203 to 204 °C

SMILES: N#Cc1cc(-c2ncccc2C(=O)O)ccc1OCCCCc1ccccc1F [Example 64, 2-{3-Cyano-4-[4-(2-fluorophenyl)butoxy]phenyl}nicotinic acid]
- IC50 (xanthine oxidase): 33 nM
- melting point: 151 to 152 °C

SMILES: N#Cc1cc(-c2ncccc2C(=O)O)ccc1OCCCCc1ccc(C(F)(F)F)cc1 [Example 63, 2-{3-Cyano-4-[4-(4-trifluoromethylphenyl)butoxy]phenyl}nicotinic acid]
- IC50 (xanthine oxidase): 97 nM
- melting point: 165 to 166 °C

SMILES: CCC1(COc2ccc(-c3ncccc3C(=O)O)cc2C#N)CCCC1 [Example 76, 2-[3-Cyano-4-(1-ethylcyclopentylmethoxy)phenyl]nicotinic acid]
- IC50 (xanthine oxidase): 17 nM
- melting point: 196 to 197 °C

SMILES: N#Cc1cc(-c2ncccc2C(=O)O)ccc1OCCCc1ccccc1C(F)(F)F [Example 118, 2-{3-Cyano-4-[3-(2-trifluoromethylphenyl)propoxy]phenyl}nicotinic acid]
- IC50 (xanthine oxidase): 12 nM

SMILES: CC(C)COc1ccc(-c2ncccc2C(=O)O)cc1C#N [Example 44, 2-(3-Cyano-4-isobutoxyphenyl)nicotinic acid]
- IC50 (xanthine oxidase): 91 nM
- melting point: 178 to 179 °C

SMILES: N#Cc1cc(-c2ncccc2C(=O)O)ccc1OCCCc1ccccc1F [Example 60, 2-{3-Cyano-4-[3-(2-fluorophenyl)propoxy]phenyl}nicotinic acid]
- IC50 (xanthine oxidase): 49 nM
- melting point: 173 to 174 °C

SMILES: N#Cc1cc(-c2ncccc2C(=O)O)ccc1N1CCCCCC1 [Example 138, 2-(4-Azepan-1-yl-3-cyanophenyl)nicotinic acid]
- IC50 (xanthine oxidase): 34 nM

SMILES: CCCCC(C)(C)COc1ccc(-c2ncccc2C(=O)O)cc1C#N [Example 73, 2-[3-Cyano-4-(2,2-dimethylhexyloxy)phenyl]nicotinic acid]
- IC50 (xanthine oxidase): 21 nM
- melting point: 155 to 156 °C

SMILES: Cc1ccc(C)c(CCOc2ccc(-c3ncccc3C(=O)O)cc2C#N)c1 [Example 130, 2-[3-Cyano-4-(2,5-dimethylphenethyloxy)phenyl]nicotinic acid]
- IC50 (xanthine oxidase): 72 nM

SMILES: CC(C)(C)COc1ccc(-c2ncc(F)cc2C(=O)O)cc1C#N [Example 140, 2-[3-Cyano-4-(2,2-dimethylpropoxy)phenyl]-5-fluoronicotinic acid]
- IC50 (xanthine oxidase): 40 nM

SMILES: N#Cc1cc(-c2ncccc2C(=O)O)ccc1OCCCc1ccccc1 [Example 116, 2-[3-Cyano-4-(3-phenylpropoxy)phenyl]nicotinic acid]
- IC50 (xanthine oxidase): 52 nM

SMILES: N#Cc1cc(-c2ncccc2C(=O)O)ccc1OCCC1CCCCC1 [Example 48, 2-[3-Cyano-4-(2-cyclohexylethoxy)phenyl]nicotinic acid]
- IC50 (xanthine oxidase): 38 nM
- melting point: 171 to 172 °C

SMILES: N#Cc1cc(-c2ncccc2C(=O)O)ccc1OCC1CCC1 [Example 46, 2-(3-Cyano-4-cyclobutylmethoxyphenyl)nicotinic acid]
- IC50 (xanthine oxidase): 83 nM
- melting point: 204 to 205 °C

SMILES: CC(C)(CCc1ccccc1)COc1ccc(-c2ncccc2C(=O)O)cc1C#N [Example 81, 2-[3-Cyano-4-(2,2-dimethyl-4-phenylbutoxy)phenyl]nicotinic acid]
- IC50 (xanthine oxidase): 16 nM
- melting point: 172 to 173 °C

SMILES: CC(C)(C)c1cc(CCCOc2ccc(-c3ncccc3C(=O)O)cc2C#N)cc(C(C)(C)C)c1O [Example 88]
- IC50 (xanthine oxidase): 47 nM

SMILES: CCCCCCOc1ccc(-c2ncccc2C(=O)O)cc1C#N [Example 49, 2-(3-Cyano-4-hexyloxyphenyl)nicotinic acid]
- IC50 (xanthine oxidase): 63 nM
- melting point: 187 to 188 °C

SMILES: CC(C)(COc1ccc(-c2ncccc2C(=O)O)cc1C#N)Cc1ccccc1C(F)(F)F [Example 132, 2-{3-Cyano-4-[2,2-dimethyl-3-(2-trifluoromethylphenyl)propoxy]phenyl}nicotinic acid]
- IC50 (xanthine oxidase): 15 nM

SMILES: COc1ccc(C(C)(C)COc2ccc(-c3ncccc3C(=O)O)cc2C#N)cc1 [Example 122, 2-{3-Cyano-4-[2-methyl-2-(4-methoxyphenyl)propoxy]phenyl}nicotinic acid]
- IC50 (xanthine oxidase): 91 nM

SMILES: CC(C)(COc1ccc(-c2ncccc2C(=O)O)cc1C#N)Cc1ccc(C(F)(F)F)cc1 [Example 106, 2-{3-Cyano-4-[2,2-dimethyl-3-(4-trifluoromethylphenyl)propoxy]phenyl}nicotinic acid]
- IC50 (xanthine oxidase): 25 nM
